For 8 molecules, IC50 and EC50 results are on record in US8735424B2 (Novartis AG, priority 2008, dated 2014).

The target in one test is PIM1 (Homo sapiens, UniProt P11309). The experiment in a line: Pim1 ATP depletion assay. The test is classed as biochemical. The conditions noted are these: 20 μM ATP, 2.5 nM PIM1. How it is done: The activity of PIM1 is measured using a luciferase-luciferin based ATP detection reagent to quantify ATP depletion resulting from kinase-catalyzed phosphoryl transfer to a peptide substrate. Compounds to be tested are dissolved in 100% DMSO and directly distributed into white 384-well plates at 0.5 μl per well. To start the reaction, 10 μl of 5 nM Pim1 kinase and 80 μM BAD peptide (RSRHSSYPAGT-OH) in assay buffer (50 mM HEPES pH 7.5, 5 mM MgCl2, 1 mM DTT, 0.05% BSA) is added into each well. After 15 minutes, 10 μl of 40 μM ATP in assay buffer is added. Final assay concentrations are 2.5 nM PIM1, 20 μM ATP, 40 μM BAD peptide and 2.5% DMSO. The reaction is performed until approximately 50% of the ATP is depleted, then stopped with the addition of 20 μl KinaseGlo Plus (Promega Corporation) solution. The stopped reaction is incubated for 10 minutes and the remaining ATP detected via luminescence on the Victor2 (Perkin Elmer). […] IC50, the half maximal inhibitory concentration, represents the concentration of a test compound that is required for 50% inhibition of its target in vitro.

A further test deals with PIM3 (Homo sapiens, UniProt Q86V86). The experiment in a line: Pim3 ATP depletion assay. The test is classed as biochemical. The conditions noted are these: 40 μM ATP. How it is done:
The activity of PIM3 is measured using a luciferase-luciferin based ATP detection reagent to quantify ATP depletion resulting from kinase-catalyzed phosphoryl transfer to a peptide substrate. Compounds to be tested are dissolved in 100% DMSO and directly distributed into white 384-well plates at 0.5 μl per well. To start the reaction, 10 μl of 10 nM Pim3 kinase and 200 μM BAD peptide (RSRHSSYPAGT-OH) in assay buffer (50 mM HEPES pH 7.5, 5 mM MgCl2, 1 mM DTT, 0.05% BSA) is added into each well. After 15 minutes, 10 μl of 80 μM ATP in assay buffer is added. Final assay concentrations are 5 nM PIM1, 40 μM ATP, 100 μM BAD peptide and 2.5% DMSO. The reaction is performed until approximately 50% of the ATP is depleted, then stopped by the addition of 20 μl KinaseGlo Plus (Promega Corporation) solution. The stopped reaction is incubated for 10 minutes and the remaining ATP detected via luminescence on the Victor2 (Perkin Elmer).

A further test concerns the target PIM2 (Homo sapiens, UniProt Q9P1W9). Briefly: Pim2 ATP depletion assay. It is filed as biochemical. Particulars: 4 μM ATP, 5 nM PIM2. How it is done: The activity of PIM2 is measured using a luciferase-luciferin based ATP detection reagent to quantify ATP depletion resulting from kinase-catalyzed phosphoryl transfer to a peptide substrate. Compounds to be tested are dissolved in 100% DMSO and directly distributed into white 384-well plates at 0.5 μl per well. To start the reaction, 10 μl of 10 nM Pim2 kinase and 20 μM BAD peptide (RSRHSSYPAGT-OH) in assay buffer (50 mM HEPES pH 7.5, 5 mM MgCl2, 1 mM DTT, 0.05% BSA) is added into each well. After 15 minutes, 10 μl of 8 μM ATP in assay buffer is added. Final assay concentrations are 5 nM PIM2, 4 μM ATP, 10 μM BAD peptide and 2.5% DMSO. The reaction is performed until approximately 50% of the ATP is depleted, then stopped with the addition of 20 μl KinaseGlo Plus (Promega Corporation) solution. The stopped reaction is incubated for 10 minutes and the remaining ATP detected via luminescence on the Victor2 (Perkin Elmer).

Another test has as its system KMS11 cells. Briefly: Cell proliferation assay (CellTiter-Glo). The conditions noted are these: KMS-11, 72 h; KMS11 human myeloma cell line, 3 days. It is filed as cell-based. Here is the method:
KMS11 (human myeloma cell line), were cultured in IMDM supplemented with 10% FBS, sodium pyruvate and antibiotics. Cells were plated in the same medium at a density of 2000 cells per well into 96 well tissue culture plates, with outside wells vacant, on the day of assay. MM1.s (human myeloma cell line), were cultured in RPMI1640 supplemented with 10% FBS, sodium pyruvate and antibiotics. Cells were plated in the same medium at a density of 5000 cells per well into 96 well tissue culture plates, with outside wells vacant, on the day of assay.
Test compounds supplied in DMSO were diluted into DMSO at 500 times the desired final concentrations before dilution into culture media to 2 times final concentrations. Equal volumes of 2× compounds were added to the cells in 96 well plates and incubated at 37° C. for 3 days.
After 3 days plates were equilibrated to room temperature and equal volume of CellTiter-Glow Reagent (Promega) was added to the culture wells. The plates were agitated briefly and luminescent signal was measured with luminometer. The percent inhibition of the signal seen in cells treated with DMSO alone vs. cells treated with control compound was calculated and used to determine EC50 values (i.e., the concentration of a test compound that is required to obtain 50% of the maximum effect in the cells) for tested compounds, as shown in Example 41.

Sequence of PIM1 (P11309 whole entry): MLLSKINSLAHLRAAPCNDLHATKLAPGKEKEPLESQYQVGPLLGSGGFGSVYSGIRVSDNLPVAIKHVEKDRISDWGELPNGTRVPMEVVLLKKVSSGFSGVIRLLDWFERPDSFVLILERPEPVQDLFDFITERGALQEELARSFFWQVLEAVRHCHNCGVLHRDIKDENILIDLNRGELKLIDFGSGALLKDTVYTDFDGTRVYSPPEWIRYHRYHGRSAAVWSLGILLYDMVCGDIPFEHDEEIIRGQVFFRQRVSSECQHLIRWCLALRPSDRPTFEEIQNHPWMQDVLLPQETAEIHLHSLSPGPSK
Sequence of PIM2 (Q9P1W9 whole entry): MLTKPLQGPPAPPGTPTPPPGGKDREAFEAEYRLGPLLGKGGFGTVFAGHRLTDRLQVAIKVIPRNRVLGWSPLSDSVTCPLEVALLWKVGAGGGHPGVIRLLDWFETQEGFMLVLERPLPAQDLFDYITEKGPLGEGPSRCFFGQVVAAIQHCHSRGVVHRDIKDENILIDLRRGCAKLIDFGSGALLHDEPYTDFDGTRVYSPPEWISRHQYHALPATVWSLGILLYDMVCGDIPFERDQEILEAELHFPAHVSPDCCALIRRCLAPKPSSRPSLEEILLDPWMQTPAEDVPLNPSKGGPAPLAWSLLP

As to `Nc1ccc(-c2ccc(F)cc2)nc1-c1cc2c(N3CCC[C@H](N)C3)ccnc2cn1` [Example 19, (S)-2-(4-(3-aminopiperidin-1-yl)-1,7-naphthyridin-6-yl)-6-(4-fluorophenyl)pyridin-3-amine], the results for the IC50 on PIM1, on PIM3 and on PIM2 were 6 nM, 7 nM and 102 nM, respectively. For the same molecule, a half-maximal effect with KMS11 cells (EC50) was put at 4000 nM.
In the same order, the values of `Nc1ccc(-c2ccccc2)nc1-c1cc2c(N3CCC[C@H](N)C3)ccnc2cn1` [Example 20, (S)-2-(4-(3-aminopiperidin-1-yl)-1,7-naphthyridin-6-yl)-6-phenylpyridin-3-amine] are 3 nM, 4 nM, 62 nM and 4200 nM.
In the same order, the values of `Nc1ccc(-c2ccc(S(N)(=O)=O)cc2)nc1-c1cc2c(N3CCC[C@H](N)C3)ccnc2cn1` [Example 23, (S)-4-(5-amino-6-(4-(3-aminopiperidin-1-yl)-1,7-naphthyridin-6-yl)pyridin-2-yl)benzenesulfonamide] are 2 nM, 7 nM, 34 nM and 7800 nM.
Take `CS(=O)(=O)c1ccc(-c2ccc(N)c(-c3cc4c(N5CCC[C@H](N)C5)ccnc4cn3)n2)cc1` [Example 24, (S)-2-(4-(3-aminopiperidin-1-yl)-1,7-naphthyridin-6-yl)-6-(4-(methylsulfonyl)phenyl)pyridin-3-amine]: the IC50 was 2 nM against PIM1, 7 nM against PIM3 and 34 nM on PIM2. The molecule further gave an EC50 in the test with KMS11 cells of 1200 nM.
In the same order, the values of `N[C@H]1CCCN(c2ccnc3cnc(-c4cccc(-c5nccs5)n4)cc23)C1` [Example 25, (S)-1-(6-(6-(thiazol-2-yl)pyridin-2-yl)-1,7-naphthyridin-4-yl)piperidin-3-amine] are 6 nM, 7 nM, 60 nM and 590 nM.
In the same order, the values of `N[C@H]1CCCN(c2ccnc3ccc(-c4cccc(-c5nccs5)n4)cc23)C1` [Example 27, (S)-1-(6-(6-(thiazol-2-yl)pyridin-2-yl)quinolin-4-yl)piperidin-3-amine] are 10 nM, 10 nM, 45 nM and 940 nM.
`N[C@H]1CCCN(c2ccnc3ccc(-c4nccc(-c5nccs5)n4)cc23)C1` [Example 28, (S)-1-(6-(4-(thiazol-2-yl)pyrimidin-2-yl)quinolin-4-yl)piperidin-3-amine]: the IC50 at PIM1 stood at 7 nM; on PIM3 it was 7 nM; at PIM2, 68 nM. This molecule came in with an EC50 in the test with KMS11 cells of 770 nM.
On to `C[C@@H]1C[C@H](N)CN(c2ccnc3ccc(-c4cccc(-c5nccs5)n4)cc23)C1` [Example 31, (3S,5R)-5-methyl-1-(6-(6-(thiazol-2-yl)pyridin-2-yl)quinolin-4-yl)piperidin-3-amine], for which the figures for the IC50 at PIM1, against PIM3 and against PIM2 were 5 nM, 6 nM and 12 nM, respectively. This molecule also came in with an EC50 in the test with KMS11 cells of 790 nM.
